In brackets after ≈: the same amount, converted by molar mass.
Columns and labels:
[1] = Compound solubility in water; conditions: water, Compound Solubility in Water
[2] = target: T1, glucocerebrosidase (Gcase) (Homo sapiens, UniProt P04062); assay: Glucocerebrosidase (Gcase) activation assay, 4-methylumbelliferyl-beta-D-glucopyranoside substrate, fluorescence readout; format: biochemical; conditions: for activation at 0.1 µM: test compound at 0.1 μM, read-out: Percent Gcase Activation, 0.1 μM Test Compound; for activation at 1 µM: test compound at 1.0 μM, read-out: Percent Gcase Activation, 1 μM Test Compound
T1 construct: micellar solution containing 10 nM GCase and 100 nM saposin C
T1 sequence (P04062 40-536): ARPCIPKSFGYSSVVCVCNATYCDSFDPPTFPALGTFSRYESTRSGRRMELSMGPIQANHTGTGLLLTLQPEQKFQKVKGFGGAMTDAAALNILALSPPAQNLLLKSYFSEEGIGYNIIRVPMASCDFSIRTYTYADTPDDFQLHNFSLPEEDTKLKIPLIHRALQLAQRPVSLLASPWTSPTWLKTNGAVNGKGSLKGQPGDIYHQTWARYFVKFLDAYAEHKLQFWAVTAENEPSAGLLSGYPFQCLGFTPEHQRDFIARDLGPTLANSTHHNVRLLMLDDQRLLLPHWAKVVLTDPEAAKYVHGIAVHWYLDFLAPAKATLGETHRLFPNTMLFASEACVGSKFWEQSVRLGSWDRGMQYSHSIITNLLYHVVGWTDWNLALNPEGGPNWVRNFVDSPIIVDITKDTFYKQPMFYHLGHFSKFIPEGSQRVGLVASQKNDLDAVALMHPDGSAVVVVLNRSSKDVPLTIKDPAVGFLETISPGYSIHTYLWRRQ
Experimental: The ability of exemplary compounds to activate glucocerebrosidase (Gcase) was measured.
A 484 μL aliquot of a 1.0 mg/mL solution of phosphatidylserine (PS) (Sigma P7769) in chloroform was evaporated under a stream of nitrogen for 1 hour. The lipid film was dissolved over 4 minutes of vigorous vortexing in 40 mL of 176 mM K2HPO4/50 mM citric acid (pH 4.7) containing 7.5 μL of triton X-100, resulting in a mixed micellar preparation with a composition of 0.32 mM triton and 0.37 mol % PS. 4-Methylumbelliferyl-beta-D-glucopyranoside (ACROS-337025000) was dissolved in the micellar solution to a final concentration of 2 mM for use as the reaction substrate.
Test compounds were diluted to the desired concentrations with dimethylsulfoxide (DMSO) from 10 mM stocks, and 0.41 μL of the DMSO compound mixture was added to 100 μL of micellar solution containing 10 nM GCase and 100 nM saposin C (Enzo ALX-201-262-C050). Pre-incubation was allowed to occur for 30 minutes at room temperature, after which the reaction was initiated by combining 25 μL of substrate solution with 25 μL of compound/GCase/saposin mixture. The reaction proceeded for 15 minutes at room temperature and was stopped by adding 150 μL of 1M glycine, pH 12.5. The endpoint of the reaction was monitored by measuring fluorescence intensity (excitation: 365 nm; emission: 440 nm) on a SpectraMax i3 instrument (Molecular Devices). Test compounds were screened at 1.0 and 0.1 μM final concentration, and subsequent 8-point dose response curves were obtained using 3-fold dilutions from a maximum final concentration of 5 μM.

Cc1cc(C)n2ccc(C(=O)Nc3ccc4nc(C)sc4c3)c2n1 [III-88]
solubility [1]: 0.1 µg/mL (≈ 0.297 µM)
activation at 0.1 µM [2]: 10 to 20%
activation at 1 µM [2]: > 60%

CO[C@H]1CC[C@H](NC(=O)c2ccn3c(C)cc(C)nc23)CC1 [III-89]
solubility [1]: 23.9 µg/mL (≈ 79.3 µM)
activation at 0.1 µM [2]: < 10%
activation at 1 µM [2]: < 30%

Cc1cc(C)n2ccc(C(=O)N[C@H]3CC[C@H](Oc4ncccn4)CC3)c2n1 [III-90]
solubility [1]: 2.4 µg/mL (≈ 6.57 µM)
activation at 0.1 µM [2]: < 10%
activation at 1 µM [2]: < 30%

Cc1cc(C)n2ccc(C(=O)NC(C)(C)c3ccccc3)c2n1 [III-91]
solubility [1]: 3 µg/mL (≈ 9.76 µM)
activation at 0.1 µM [2]: > 20%
activation at 1 µM [2]: > 60%

Cc1cc(C)n2ccc(C(=O)NC3CCC(F)(F)CC3)c2n1 [III-92]
solubility [1]: 1.6 µg/mL (≈ 5.21 µM)
activation at 0.1 µM [2]: < 10%
activation at 1 µM [2]: 30 to 60%

Cc1cc(C)n2ccc(C(=O)N[C@H]3CC[C@H](OCC(C)(C)C)CC3)c2n1 [III-93]
solubility [1]: 6.2 µg/mL (≈ 17.3 µM)
activation at 0.1 µM [2]: > 20%
activation at 1 µM [2]: > 60%

Cc1cc(C)n2ccc(C(=O)N[C@H]3CC[C@@H](OCC(C)(C)C)CC3)c2n1 [III-94]
solubility [1]: 1.8 µg/mL (≈ 5.03 µM)
activation at 0.1 µM [2]: > 20%
activation at 1 µM [2]: > 60%

Cc1cc(C)n2ccc(C(=O)N[C@H]3CC[C@H](OCC4CC(F)(F)C4)CC3)c2n1 [III-95]
solubility [1]: 3.1 µg/mL (≈ 7.92 µM)
activation at 0.1 µM [2]: 10 to 20%
activation at 1 µM [2]: > 60%

Cc1cc(C)n2ccc(C(=O)Nc3ccc4c(c3)C(Oc3cc(C)on3)CC4)c2n1 (stereo not drawn) [III-96]
solubility [1]: 0.08 µg/mL (≈ 0.199 µM)
activation at 0.1 µM [2]: > 20%
activation at 1 µM [2]: > 60%

COC1CCCCC1NC(=O)c1ccn2c(C)cc(C)nc12 (stereo not drawn) [III-98]
solubility [1]: 29.9 µg/mL (≈ 99.2 µM)
activation at 0.1 µM [2]: < 10%
activation at 1 µM [2]: < 30%

CCO[C@H]1CC[C@H](NC(=O)c2ccn3c(C)cc(C)nc23)CC1 [III-99]
solubility [1]: 30.5 µg/mL (≈ 96.7 µM)
activation at 0.1 µM [2]: < 10%
activation at 1 µM [2]: < 30%

Cc1cc(C)n2ccc(C(=O)N[C@H]3CCCc4ccccc43)c2n1 [III-100]
solubility [1]: 0.7 µg/mL (≈ 2.19 µM)
activation at 0.1 µM [2]: > 20%
activation at 1 µM [2]: > 60%

Cc1cc(C)n2ccc(C(=O)N[C@H]3CC[C@H](OC4CCC4)CC3)c2n1 [III-101]
solubility [1]: 8.5 µg/mL (≈ 24.9 µM)
activation at 0.1 µM [2]: > 20%
activation at 1 µM [2]: > 60%

CCOCCO[C@H]1CC[C@H](NC(=O)c2ccn3c(C)cc(C)nc23)CC1 [III-102]
solubility [1]: 38.3 µg/mL (≈ 107 µM)
activation at 0.1 µM [2]: < 10%
activation at 1 µM [2]: < 30%

COCCOc1ccc2c(c1)C(NC(=O)c1ccn3c(C)cc(C)nc13)CC2 (stereo not drawn) [III-103]
solubility [1]: 11.8 µg/mL (≈ 31.1 µM)
activation at 0.1 µM [2]: 10 to 20%
activation at 1 µM [2]: > 60%

COCCOc1ccc2c(c1)C(NC(=O)c1ccn3c(C)cc(C)nc13)CCC2 (stereo not drawn) [III-104]
solubility [1]: 5.8 µg/mL (≈ 14.7 µM)
activation at 0.1 µM [2]: 10 to 20%
activation at 1 µM [2]: > 60%

COCCOCCO[C@H]1CC[C@H](NC(=O)c2ccn3c(C)cc(C)nc23)CC1 [III-105]
solubility [1]: 47.3 µg/mL (≈ 121 µM)
activation at 0.1 µM [2]: < 10%
activation at 1 µM [2]: < 30%

Cc1cc(C)n2ccc(C(=O)N[C@H]3CC[C@H](OC(C)C)CC3)c2n1 [III-106]
solubility [1]: 10.4 µg/mL (≈ 31.6 µM)
activation at 0.1 µM [2]: 10 to 20%
activation at 1 µM [2]: > 60%

COCCCO[C@H]1CC[C@H](NC(=O)c2ccn3c(C)cc(C)nc23)CC1 [III-107]
solubility [1]: 13.2 µg/mL (≈ 36.7 µM)
activation at 0.1 µM [2]: < 10%
activation at 1 µM [2]: < 30%

COc1cc(NC(=O)c2ccn3c(C)cc(C)nc23)ccc1-c1cocn1 [III-108]
solubility [1]: 0.2 µg/mL (≈ 0.552 µM)
activation at 0.1 µM [2]: > 20%
activation at 1 µM [2]: > 60%

COc1cc(-c2cocn2)ccc1NC(=O)c1ccn2c(C)cc(C)nc12 [III-109]
solubility [1]: 0.1 µg/mL (≈ 0.276 µM)
activation at 0.1 µM [2]: > 20%
activation at 1 µM [2]: > 60%

COc1cc(-c2cnco2)ccc1NC(=O)c1ccn2c(C)cc(C)nc12 [III-110]
solubility [1]: 0.4 µg/mL (≈ 1.1 µM)
activation at 0.1 µM [2]: > 20%
activation at 1 µM [2]: > 60%

Cc1cc(C)n2ccc(C(=O)NC3CCc4nc(C)sc4C3)c2n1 (stereo not drawn) [III-111]
solubility [1]: 30.6 µg/mL (≈ 89.9 µM)
activation at 0.1 µM [2]: < 10%
activation at 1 µM [2]: < 30%
